# Laboratory results: patent US8017611B2, “Pyridine and pyrazine derivatives -083” (AstraZeneca AB, priority 2007, dated 2011)
# Biological target: T1, recombinant Axl tyrosine kinase (Homo sapiens, UniProt P30530)
# T1 construct: encompassing amino acids 473 to 894 of Axl; GST (N); made in house; host or cells: SF126 insect cells
# T1 sequence (P30530 473-894): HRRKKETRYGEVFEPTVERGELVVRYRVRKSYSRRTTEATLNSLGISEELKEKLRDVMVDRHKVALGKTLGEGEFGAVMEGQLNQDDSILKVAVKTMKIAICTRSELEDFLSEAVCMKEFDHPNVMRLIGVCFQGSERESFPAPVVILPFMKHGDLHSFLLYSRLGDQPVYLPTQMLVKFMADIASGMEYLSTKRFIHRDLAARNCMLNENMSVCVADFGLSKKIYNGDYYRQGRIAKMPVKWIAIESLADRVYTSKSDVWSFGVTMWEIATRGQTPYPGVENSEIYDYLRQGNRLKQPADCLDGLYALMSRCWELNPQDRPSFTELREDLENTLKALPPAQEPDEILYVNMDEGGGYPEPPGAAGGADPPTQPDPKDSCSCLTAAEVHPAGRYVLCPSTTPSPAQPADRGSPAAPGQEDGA
# Assay: In vitro Axl kinase assay (AlphaScreen), Test (a)
# Assay type: biochemical
# Details: for inhibition at 1 µM / % Axl tyrosine kinase inhibition at 1 μM concentration: test compound at 1 μM, first value quoted; for inhibition at 1 µM: read-out: % Axl tyrosine kinase inhibition at 1 μM concentration; for % Axl tyrosine kinase inhibition at 1 μM concentration (second value, †): mean calculated from a larger number of replicates than the first value
Structure (SMILES),% Axl tyrosine kinase inhibition at 1 μM concentration [%],other results
"CC(O)c1nn(C2CCNCC2)cc1-c1cnc(N)c(-c2nc3ccccc3o2)c1 (centres unmarked) [Example 60, 1-[4-[6-amino-5-(1,3-benzoxazol-2-yl)-3-pyridyl]-1-(4-piperidyl)pyrazol-3-yl]ethanol]",,inhibition at 1 µM: 99.8%
Nc1ncc(-c2cccc(N3CCNCC3)c2)nc1-c1nc2ccccc2o1 [Example 20.2],99.6,"% Axl tyrosine kinase inhibition at 1 μM concentration (second value, †): 99.3%"
CN1CCCC(Oc2ccc(-c3cnc(N)c(-c4nc5ncccc5o4)c3)cc2)C1 (centres unmarked) [Example 43B.9],98.2,
"Nc1ncc(-c2cnn(CCN3CCNCC3)c2)cc1-c1nc2ccccc2o1 [Example 32, 3-(1,3-benzoxazol-2-yl)-5-[1-(2-piperazin-1-ylethyl)pyrazol-4-yl]pyridin-2-amine]",,inhibition at 1 µM: 99.9%
Nc1ncc(-c2cccc(-c3ccn[nH]3)c2)cc1-c1nc2cnccc2o1 [Example 8A.28],97.5,
"Nc1ncc(-c2cccc(S(=O)(=O)N3CCOCC3)c2)cc1-c1nc2ccccc2o1 [Example 47, 3-(1,3-Benzoxazol-2-yl)-5-(3-morpholinosulphonylphenyl)pyridin-2-amine]",,"inhibition at 30 µM (test compound at 30 μM, read-out: % of Axl tyrosine kinase activity inhibited at a concentration of 30 μM): 99.5%"
COc1nn(C2CCN(C)CC2)cc1-c1cnc(N)c(-c2nc3ccccc3o2)c1 [Example 41.14],100.0,
COCc1cccc(-c2cnc(N)c(-c3nc4ccccc4o3)c2)c1 [Example 2.15],80.2,
Nc1ncc(-c2ccc3[nH]ncc3c2)cc1-c1nc2ccccc2o1 [Example 2.23],87.2,
Nc1ncc(-c2cccc(CN3CCCC3)c2)cc1-c1nc2ncccc2o1 [Example 10A.7],95.9,
"Nc1ncc(-c2cccc(S(=O)(=O)CCC3CCNCC3)c2)cc1-c1nc2ccccc2o1 [Example 46, 3-(1,3-Benzoxazol-2-yl)-5-[3-[2-(4-piperidyl)ethylsulphonyl]phenyl]pyridin-2-amine]",,inhibition at 1 µM: 95.9%
CN(C)S(=O)(=O)c1ccc(-c2cnc(N)c(-c3nc4ccccc4o3)c2)cc1 [Example 2.28],85.1,
"Nc1ncc(-c2cnn(C3CCNCC3)c2)nc1-c1nc2ccccc2s1 [Example 19, 3-(1,3-Benzothiazol-2-yl)-5-[1-(4-piperidyl)pyrazol-4-yl]pyrazin-2-amine]",,inhibition at 1 µM: 99.6%
"CN1CCC(n2cc(-c3cnc(N)c(-c4nc5ccccc5s4)c3)cn2)CC1 [Example 16, 3-(1,3-Benzothiazol-2-yl)-5-[1-(1-methyl-4-piperidyl)pyrazol-4-yl]pyridin-2-amine]",,inhibition at 1 µM: 99.8%
Nc1ncc(-c2ccc(OCCN3CCCC3)cc2)cc1-c1nc2ncccc2o1 [Example 43B.1],99.8,
Nc1ncc(-c2ccc(N3CCNCC3)cc2)cc1-c1nc2ccccc2o1 [Example 2.14],99.9,

Structure (SMILES),% Axl tyrosine kinase inhibition at 1 μM concentration [%],other results
CN1CCC(n2cc(-c3cnc(N)c(-c4nc5ccccc5o4)c3)c(C#N)n2)CC1 [Example 41.28],100.0,
Nc1ncc(-c2ccc(N3CCNCC3)nc2)nc1-c1nc2ccccc2o1 [Example 20.3],99.3,"% Axl tyrosine kinase inhibition at 1 μM concentration (second value, †): 98.7%"
Nc1ncc(-c2cnn(CCCN3CCC3)c2)cc1-c1nc2ccccc2o1 [Example 31.6],99.7,
"Nc1ncc(-c2cnn(C3CCNCC3)c2)nc1-c1nc2ccc(F)cc2o1 [Example 17A.1, 3-(6-fluoro-1,3-benzoxazol-2-yl)-5-[1-(4-piperidyl)pyrazol-4-yl]pyrazin-2-amine]",,inhibition at 1 µM: 98.5%
Cc1nn(C2CCN(C)CC2)cc1-c1cnc(N)c(-c2nc3c(F)cccc3o2)c1 [Example 41.23],100.0,
Nc1ncc(-c2cccc(N3CCCCC3)c2)cc1-c1nc2ccncc2o1 [Example 11A.6],90.0,
CN1CCN(C(=O)c2cccc(-c3cnc(N)c(-c4nc5ncccc5o4)c3)c2)CC1 [Example 10A.8],57.4,
Nc1ncc(-c2ccc(OCCN3CCOCC3)cc2)cc1-c1nc2cccnc2o1 [Example 43A.2],97.2,
Cc1ccc2nc(-c3cc(-c4cnn(C5CCN(C)CC5)c4)cnc3N)oc2c1 [Example 7.9],99.7,
CC(O)c1nn(C2CCN(C)CC2)cc1-c1cnc(N)c(-c2nc3ccccc3o2)c1 (centres unmarked) [Example 41.29],99.9,
CN(C)CCCNC(=O)c1ccc(-c2cnc(N)c(-c3nc4ncccc4o3)c2)cc1 [Example 10A.12],99.0,
CN1CCCC(Cn2cc(-c3cnc(N)c(-c4nc5ccccc5o4)c3)cn2)C1 (centres unmarked) [Example 27.1],100.0,
N#CCC1(n2cc(-c3cnc(N)c(-c4nc5ccccc5o4)c3)cn2)CCNCC1 [Example 25.1],95.0,
CN1CCN(c2ccc(-c3cnc(N)c(-c4nc5cccnc5o4)c3)cc2)CC1 [Example 25.10],97.7,
Nc1ncc(-c2cnn(C3CCNCC3)c2)cc1-c1nc2cccc(F)c2o1 [Example 38.3],100.0,

# The next lines start with results.
% Axl tyrosine kinase inhibition at 1 μM concentration [%],Structure (SMILES),other results
97.9,CN1CCC(CNC(=O)c2ccc(-c3cnc(N)c(-c4nc5cccnc5o4)c3)cc2)C1 (centres unmarked) [Example 45A.27],
99.4,CN[C@H]1COCC[C@H]1Oc1ccc(-c2cnc(N)c(-c3nc4ncccc4o3)c2)cc1OC [Example 43C.37],
99.3,Nc1ncc(-c2ccc(C(=O)NC[C@H]3CCCNC3)cc2)cc1-c1nc2cccnc2o1 [Example 45A.93],
99.8,COc1cc(-c2cnc(N)c(-c3nc4ncccc4o3)c2)ccc1OC[C@@H]1CCCN1C [Example 43C.6],
98.5,Nc1ncc(-c2ccc(C(=O)NCCN3CCOCC3)cc2)cc1-c1nc2cccnc2o1 [Example 45A.51],
94.2,Nc1ncc(-c2ccc(C(=O)N3CCCC3CN3CCOCC3)cc2)cc1-c1nc2cccnc2o1 (centres unmarked) [Example 45A.16],
98.2,CNCCOc1ccc(-c2cnc(N)c(-c3nc4ncccc4o3)c2)cc1OC [Example 43C.22],
97.7,CNCCOc1ccc(-c2cnc(N)c(-c3nc4ncccc4o3)c2)cc1 [Example 43B.26],
99.6,Nc1ncc(-c2ccc(C(=O)NCCN3CCCCCC3)cc2)cc1-c1nc2cccnc2o1 [Example 45A.32],
99.8,COc1cc(-c2cnc(N)c(-c3nc4ncccc4o3)c2)ccc1OCCCN1CCNCC1 [Example 43C.32],
97.8,CNC(=O)CN1CCC(n2cc(-c3cnc(N)c(-c4nc5ncccc5o4)c3)cn2)CC1 [Example 53.2],
97.5,COCCN1CCC(NC(=O)c2ccc(-c3cnc(N)c(-c4nc5cccnc5o4)c3)cc2)CC1 [Example 45A.10],
99.7,CN(C)CCC(=O)N1CCC(n2cc(-c3cnc(N)c(-c4nc5cccnc5o4)c3)cn2)CC1 [Example 59.13],
97.4,CN1CC(NC(=O)c2ccc(-c3cnc(N)c(-c4nc5cccnc5o4)c3)cc2)C1 [Example 45A.30],
99.9,COc1cc(-c2cnc(N)c(-c3nc4ncccc4o3)c2)ccc1OCCC1CCCCN1C (centres unmarked) [Example 43C.13],
99.5,COC(=O)N1CCC(n2cc(-c3cnc(N)c(-c4nc5ncccc5o4)c3)cn2)CC1 [Example 55.3],
95.9,CN(C)C(=O)CN1CCN(C(=O)c2ccc(-c3cnc(N)c(-c4nc5ncccc5o4)c3)cc2)CC1 [Example 45B.6],
51.0,CNCCCOc1ccc(-c2cnc(N)c(-c3nc4ncccc4o3)c2)cc1OC [Example 43C.28],
93.7,CN(C)CCN1CCN(C(=O)c2ccc(-c3cnc(N)c(-c4nc5cccnc5o4)c3)cc2)CC1 [Example 45A.50],
99.6,CCN1CCCC1CNC(=O)c1ccc(-c2cnc(N)c(-c3nc4cccnc4o3)c2)cc1 (centres unmarked) [Example 45A.72],
98.8,CN1CCCC(COc2ccc(-c3cnc(N)c(-c4nc5ncccc5o4)c3)cc2)C1 (centres unmarked) [Example 43B.12],
97.7,NCC1CCN(C(=O)c2ccc(-c3cnc(N)c(-c4nc5cccnc5o4)c3)cc2)CC1 [Example 45A.78],
99.8,CNC(=O)c1nn(C2CCNCC2)cc1-c1cnc(N)c(-c2nc3ccccc3o2)c1 [Example 62.4],
98.8,Nc1ncc(-c2cnn(C3CCN(S(=O)(=O)C4CC4)CC3)c2)cc1-c1nc2ncccc2o1 [Example 55.2],
98.1,CN(C)CCN(C)C(=O)c1ccc(-c2cnc(N)c(-c3nc4ncccc4o3)c2)cc1 [Example 45B.1],
99.6,Nc1ncc(-c2ccc(C(=O)N3CCN(Cc4ccccn4)CC3)cc2)cc1-c1nc2ncccc2o1 [Example 45B.4],
